Results taken from patent US11198869B2, “Angelman syndrome antisense treatment” (The Texas A&M University System, priority 2017, dated 2021).
Like-named read-outs stand apart in the source and are kept apart here. Oligonucleotides are written 5' to 3', each unit as a sugar letter and its base; * is a phosphorothioate linkage, no mark a phosphodiester; rarer units and linkages stand in square brackets, end groups in braces. Plain capitals give the bases only. l = locked nucleic acid (LNA); [5mC] = 5-methylcytosine; d = 2'-deoxy (DNA)

Experiments:
UBE3A-AS [1] = test: UBE3A-AS steady state RNA (TaqMan qRT-PCR) in GABAergic iPSC-derived neurons; type: cell-based, human; settings: for IC50 Ratio relative to ASO-4.4.PS.L: equivalence; for IC50 Ratio relative to ASO-4.4.PS.L / Limit Exceeded (equivalence of IC50 relative to ASO-4.4.PS.L): two one-sided tests; for Relative Potency: relative to ASO-4.4.PS.L = 1
UBE3A-AS [2] = test: as above; type: cell-based, human; settings: for Cluster (hierarchical clustering of fitted dose response curves): candidate ASOs, Cluster 1 representing the 9 most potent ASOs; for IC50 / Relative Potency: optimized ASOs; for IC50: 3-parameter logistic; for Relative Potency: relative to ASO 4.S = 1
Experimental: Human-specific ASOs were then designed to target this region, which included four ASOs targeting non-polymorphic regions in human and regions conserved (100%) with macaque (Rhesus and Cynomolgus) (Table 7 and FIG. 3A). Human induced pluripotent stem cell (iPSC) neural precursor cells were differentiated into GABAergic neurons for 14 DIV and then treated with a control ASO [ASO-C (10 μM, n=3)], Topotecan [Topo (1 μM, n=2)], and six ASOs targeting UBE3A-AS [ASO-1, ASO-2, ASO-3, ASO-4, ASO-5, and ASO-6 (10 μM, n=3)]. Additionally, an ASO targeting an intronic region downstream of SNORD109B was included (ASO-7). Six days post-treatment (20 DIV), RNA was isolated from the neurons and the steady state RNA levels of UBE3A-AS and UBE3A were estimated relative to the control treatment (FIG. 3B).
The potency of ASO-4 was further examined given its effect on UBE3A-AS RNA levels. GABAergic iPSC-derived neurons were treated at 14 DIV with a 10-point ½ log dose response curve of ASO-4 and Topotecan, as a positive control and for comparisons between treatment [1 nM, 3 nM, 10 nM, 30 nM, 100 nM, 300 nM, 1 μM, 3 μM, 10 μM, and 30 μM (ASO-4, n=6; Topotecan, n=2)]. At 20 DIV, the steady state RNA levels of UBE3A-AS were measured and dose response curves fitted to estimate the IC50 and Emax (i.e., maximum UBE3A-AS inhibition) (Table 9 and FIG. 4A). […]
Additional ASOs targeting the 5′-end of UBE3A-AS were then designed to optimize the target sequences of ASO-4 (ASO-4.1, ASO-4.2, ASO-4.3, and ASO-4.4) as well as two other target regions, ASO-3 (ASO-3.1 and ASO-3.2) and ASO-6 (ASO-6.1) (Table 11). Additionally, ASO-4 was manufactured at two different vendors for comparative purposes (ASO-4.S, Sigma; ASO-4.I, Integrated DNA Technologies). Human iPSC-derived neurons (GABAergic) were treated at 14 DIV with a […] ½ log dose curve of ASO-3.1, ASO-3.2, ASO-4.S, ASO-4.I, ASO-4.1, ASO-4.2, ASO-4.3, ASO-4.4, and ASO-6.1 [30 nM, 100 nM, 300 nM, 1 μM (n=6)]. At 20 DIV, the IC50 and Emax of each ASO was estimated as described above (FIG. 5A-B and Table 12). […] No significant difference was observed between ASO-4.S and ASO-4.I.
The potency of ASO-4 and ASO-6.1 was further examined in iPSC-derived neurons at a later time point in differentiation. GABAergic iPSC-derived neurons were treated at 29 DIV with a 10-point ½ log dose response curve of ASO-4 and ASO-6.1 [1 nM, 3 nM, 10 nM, 30 nM, 100 nM, 300 nM, 1 μM, 3 μM, 10 μM, and 30 μM (n=3)]. At 35 DIV, the IC50 and Emax of each ASO was estimated as described above (FIG. 5C-D and Table 14). The dose response curves of ASO-4 and ASO-6.1 were not similar (Parallelism test: F(3,172)=22.7, p<0.0001).
GABAergic and glutamatergic induced pluripotent stem cell (iPSC) derived neural precursor cells (NRC-100-010-001 and GNC-301-030-001, Cellular Dynamics International, Madison Wis.) were differentiated into neurons according to the manufactures protocol. Briefly, neural precursor cells were thawed and resuspended in chemically defined medium and added to sterile-culture plates coated with poly-D-lysine and laminin. The medium was replaced 24 hr after plating and then one-half of the medium was replaced every 3-5 days afterwards.
For cultured iPSC-derived neurons, RNA isolation and cDNA synthesis were performed using the Cell-to-CT kit (Thermo Fisher Scientific) in a lysate volume of 55 μl.
The steady state RNA levels of target transcripts were measured using TaqMan quantitative reverse-transcription PCR (qRT-PCR) assays. Total reaction volume was 10 uL, including 2 μl of cDNA, 1× Gene Expression Master mix (4369016, Thermo Fisher Scientific, Waltham, Mass.), and 1× TaqMan primer assay (Thermo Fisher Scientific). Cycling conditions were 2 minutes at 50° C., 10 minutes at 95° C., and 40 cycles of 15 seconds at 95° C. and 1 minute at 60° C., with readings taken at the 60° C. step of every cycle. […]

[3] = Cluster 1 ASOs, 18 DIV to 24 DIV, parallel model, 4 Parameter logistic (Hill)
[4] = candidate ASOs, 18 DIV to 24 DIV
[5] = candidate ASOs, 18 DIV to 24 DIV, 4-parameter logistic (Hill)
[6] = candidate ASOs, treated 18 DIV, RNA 24 DIV, 10-point dose curve, n=2, full model, 4-parameter logistic (Hill)
[7] = 14 DIV to 20 DIV, parallel model, read-out: IC50 (M), UBE3A-AS
[8] = treated 14 DIV, RNA 20 DIV, 5-point dose curve 30 nM-3 μM, full model, read-out: IC50 Estimate, UBE3A-AS

| Substance | IC50 (UBE3A-AS [1]; [3]) [nM] | IC50 Ratio relative to ASO-4.4.PS.L (UBE3A-AS [1]; Cluster 1 ASOs) | Relative Potency (UBE3A-AS [1]; Cluster 1 ASOs, parallel model) | Limit Exceeded (equivalence of IC50 relative to ASO-4.4.PS.L) (UBE3A-AS [1]; Cluster 1 ASOs) | 30 μM (Mean), normalized UBE3A-AS RNA level relative to vehicle (UBE3A-AS [1]; [4]) | Emax (normalized UBE3A-AS RNA level relative to vehicle) (UBE3A-AS [1]; [5]) | IC50 (UBE3A-AS [1]; [6]) [nM] | Cluster (hierarchical clustering of fitted dose response curves) (UBE3A-AS [2]) | 3 μM (Mean), Emax, normalized UBE3A-AS RNA level relative to vehicle (UBE3A-AS [2]; treated 14 DIV, RNA 20 DIV) | IC50 (UBE3A-AS [2]; [7]) [M] | Relative Potency (UBE3A-AS [2]; parallel model) | IC50 (UBE3A-AS [2]; [8]) [M] |
| --- | --- | --- | --- | --- | --- | --- | --- | --- | --- | --- | --- | --- |
| 5mC^M*T^M*G^M*G^M*t*g*t*c*a*a*c*a*a*g*5mC^M*5mC^M*A^M*A^M [ASO-6.1.PS.M] | 153 | 0.90 | 0.3 | equivalent IC50 values | 0.02 | −0.05 | 147 |  |  |  |  |  |
| 5mC^M*T^M*G^M*G^M-t*g*t*c*a*a*c*a*a*g-5mC^M*5mC^M*A^M*A^M [ASO-6.1.PO-1.M] | 177 | 0.90 | 0.3 | equivalent IC50 values | 0.04 | −0.02 | 166 |  |  |  |  |  |
| 5mC^M*T^M-G^M*G^M-t*g-t*c-a*a-c*a-a*g-5mC^M*5mC^M-A^M*A^M [ASO-6.1.PO-2.M] |  |  |  |  | 0.3 | −1.2 | 269000 |  |  |  |  |  |
| A^L*G^L*A^L-a*t*g*g*c*a*c*a*t*c*t-5mC^L*T^L*T^L*G^L (lA*lG*lAdA*dT*dG*dG*dC*dA*dC*dA*dT*dC*dTl[5mC]*lT*lT*lG) [ASO-4.4.PO-1.L] | 322 | 0.88 | 0.2 | Lower | 0.1 | 0.04 | 226 | 1 |  |  |  |  |
| A^L*G^L-A^L*a-t*g-g*c-a*c-a*t-c*t-5mC^L*T^L*T^L*G^L (lA*lGlA*dAdT*dGdG*dCdA*dCdA*dTdC*dTl[5mC]*lT*lT*lG) [ASO-4.4.PO-2.L] |  |  |  |  | 0.6 | −2.7 |  | 3 |  |  |  |  |
| A^O*G^O*A^O*A^O*t*g*g*c*a*c*a*t*c*t*C^O*U^O*U^O*G^O [ASO-4.4] |  |  |  |  |  |  |  |  | 0.44 | 2.04e-06 | 0.73 | 2.11e-06 |
| A^O*G^O*A^O*A^O*t*g*g*c*a*c*a*t*c*t*C^O*U^O*U^O*G^O*G^O [ASO-4.2] |  |  |  |  |  |  |  |  | 0.31 | 1.24e-06 | 1.21 | 1.08e-06 |
| A^O*U^O*A^O*G^O*A^O*a*t*g*g*c*a*c*a*t*c*U^O*C^O*U^O*U^O*G^O [ASO-4.1] |  |  |  |  |  |  |  |  | 0.42 |  |  | 2.27e-06 |
| C^O*U^O*G^O*G^O*t*g*t*c*a*a*c*a*a*g*C^O*C^O*A^O*A^o [ASO-6.1.PS.O] | 432 | 0.83 | 0.1 | Lower | 0.05 | −0.2 | 532 |  |  |  |  |  |
| C^O*U^O-G^O*G^O-t*g-t*c-a*a-c*a-a*g-C^O*C^O-A^O*A^o [ASO-6.1.PO-2.O] |  |  |  |  | 0.3 |  |  |  |  |  |  |  |
| G^O*U^O*U^O*G^O*a*g*t*g*g*t*g*t*c*a*G^O*U^O*U^O*U^O*C^O [ASO-3.1] |  |  |  |  |  |  |  |  | 0.51 | 2.81e-06 | 0.53 | 2.98e-06 |
| T^L*G^L*G^L*t*g*t*c*a*a*c*a*a*g*5mC^L*5mC^L*A^L*A^L [ASO-6.1.PS.L] | 281 | 0.85 | 0.2 | Lower | 0.04 | −0.07 | 362 |  |  |  |  |  |
| T^L*G^L*G^L-t*g*t*c*a*a*c*a*a*g-5mC^L*5mC^L*A^L*A^L [ASO-6.1.PO-1.L] |  |  |  |  | 0.2 | 0.03 | 1890 |  |  |  |  |  |
| T^L*G^L-G^L*t-g*t-c*a-a*c-a*a-g*5mC^L-5mC^L-A^L*A^L [ASO-6.1.PO-2.L] |  |  |  |  | 0.4 | 0.3 | 734 |  |  |  |  |  |
| T^M*A^M*G^M*A^M*A^M*t*g*g*c*a*c*a*t*c*t*5mC^M*T^M*T^M*G^M*G^M [ASO-4.0.PS.M] | 262 | 0.86 | 0.2 | Lower | 0.05 | 0.05 | 300 |  |  |  |  |  |
| T^M*A^M*G^M*A^M*A^M-t*g*g*c*a*c*a*t*c*t-5mC^M*T^M*T^M*G^M*G^M [ASO-4.0.PO-1.M] | 278 | 0.87 | 0.2 | Lower | 0.05 | 0.02 | 278 |  |  |  |  |  |
| T^M*A^M-G^M*A^M-A^M*t-g*g-c*a-c*a-t*c-t*5mC^M*T^M*T^M-G^M*G^M [ASO-4.0.PO-2.M] |  |  |  |  | 0.5 |  |  |  |  |  |  |  |
| U^O*A^O*G^O*A^O*A^O*t*g*g*c*a*c*a*t*c*t*C^O*U^O*U^O*G^O*G^o [ASO-4.0.PS.O] |  |  |  |  | 0.1 | 0.06 | 1270 |  |  |  |  |  |
| U^O*A^O*G^O*A^O*A^O-t*g*g*c*a*c*a*t*c*t-C^O*U^O*U^O*G^O*G^o [ASO-4.0.PO-1.O] |  |  |  |  | 0.1 | 0.05 | 766 |  |  |  |  |  |
| U^O*A^O*G^O*A^O*a*t*g*g*c*a*c*a*t*c*U^O*C^O*U^O*U^O*G^O [ASO-4.3] |  |  |  |  |  |  |  |  | 0.40 | 1.96e-06 | 0.76 | 2.03e-06 |
| U^O*A^O-G^O*A^O-A^O*t-g*g-c*a-c*a-t*c-t*C^O-U^O*U^O-G^O*G^o [ASO-4.0.PO-2.O] |  |  |  |  | 0.6 | −0.3 | 130000 |  |  |  |  |  |
| U^O*U^O*G^O*A^O*g*t*g*g*t*g*t*c*a*g*U^O*U^O*U^O*C^O [ASO-3.2] |  |  |  |  |  |  |  |  | 0.44 | 1.85e-06 | 0.81 | 1.88e-06 |
